{"source": "patent US6906083B2", "about": "(dated 2005)", "data": [{"values": [{"smiles": "COc1cc2c(cc1OC)C(=O)C(F)(CC1CCN(CC(C)C)CC1)C2.Cl", "note": "(stereo not drawn)", "melting point": "220 to 225 °C (dec.)"}, {"smiles": "COc1cc2c(cc1OC)C(=O)C(F)(CC1CCNCC1)C2.Cl", "note": "(stereo not drawn)", "melting point": "> 240 °C (dec.)"}, {"smiles": "COc1cc2c(cc1OC)C(=O)C(F)(CC1CCN(C)CC1)C2.Cl", "note": "(stereo not drawn)", "melting point": "215 to 220 °C (dec.)"}]}]}
